Like-named read-outs stand apart in the source and are kept apart here.
Experiments:
Abeta 40 = assay: In vivo inhibition of beta-secretase: Abeta 40 reduction in CSF and brain of the rat; conditions: 10 mpk (unless otherwise noted), after 4 hrs
From the text: In Vivo Inhibition of Beta-Secretase
Several animal models, including mouse, rat, dog, and monkey, may be used to screen for inhibition of beta-secretase activity in vivo following administration of a test compound sample. Animals used in this invention can be wild type, transgenic, or gene knockout animals. For example, the Tg2576 mouse model, prepared and conducted as described in Hsiao et al., 1996, Science 274, 99-102, and other non-transgenic or gene knockout animals are useful to analyze in vivo inhibition of Amyloid beta peptide (Abeta) production in the presence of inhibitory test compounds. Generally, 2 to 18 month old Tg2576 mice, gene knockout mice or non-transgenic animals are administered test compounds formulated in vehicles, such as cyclodextran, phosphate buffers, hydroxypropyl methylcellulose or other suitable vehicles. One to twenty-four hours following the administration of compound, animals are sacrificed, and brains as well as cerebrospinal fluid (CSF) and plasma are removed for analysis of A-beta levels and drug or test compound concentrations (Dovey et al., 2001, Journal of Neurochemistry, 76, 173-181) Beginning at time 0, animals are administered by oral gavage, or other means of delivery such as intravenous injection, an inhibitory test compound of up to 100 mg/kg in a standard, conventional formulation, such as 2% hydroxypropyl methylcellulose, 1% Tween80. A separate group of animals receive 2% hydroxypropyl methylcellulose, 1% Tween80 alone, containing no test compound, and serve as a vehicle-control group. At the end of the test period, animals are sacrificed and brain tissues, plasma or cerebrospinal fluid are collected. Brains are either homogenized in 10 volumes (w/v) of 0.2% diethylamine (DEA) in 50 mM NaCl (Best et al., 2005, Journal of Pharmacology and Experimental Therapeutics, 313, 902-908), or in 10 volumes of 0.5% TritonX-100 in Tris-buffered saline (pH at about 7.6). Homogenates are centrifuged at 355,000 g, 4° C. for 30 minutes. CSF or brain supernatants are then analyzed for the presence of A-beta peptide by specific sandwich ELISA assays based on ECL (Electrochemiluminescence) technology. For example, rat Abeta40 is measured using biotinylated-4G8 (Signet) as a capture antibody and Fab40 (an in-house antibody specific to the C-terminal of Abeta40) as a detection antibody. For example, 4 hours after administration of 30 mg/kg oral dose of the test compound in 2% hydroxypropyl methylcellulose, 1% Tween80 (pH2.2) to 200 g male Sprague Dawley rats, amyloid beta peptide levels are measured for reduction by X % and Y % in cerebrospinal fluid and brain, respectively, when compared to the levels measured in the vehicle-treated or control […].
Actual vehicles used: Oral: 2% HPMC, 1% Tween80, pH 2.2
• IV: 5% EtOH, 45% Propylene Glycol in 5% Dextrose
The compounds of the invention may be shown to reduce the formation and/or deposition of amyloid beta peptide in the cerebrospinal fluid (CSF) as well as in the brain of a mouse or rat at either 3 mpk, 10 mpk or 30 mpk (mpk=mg compound per kg weight of the animal) dosing concentrations after 4 hrs.

[1] = molecular target: Beta Secretase enzyme (BACE) (Homo sapiens, UniProt P56817); assay: In vitro enzymatic BACE FRET assay; assay type: biochemical; conditions: read-out: BACE1 FRET assay IC50
Chain of Beta Secretase enzyme (BACE) (P56817 46-501): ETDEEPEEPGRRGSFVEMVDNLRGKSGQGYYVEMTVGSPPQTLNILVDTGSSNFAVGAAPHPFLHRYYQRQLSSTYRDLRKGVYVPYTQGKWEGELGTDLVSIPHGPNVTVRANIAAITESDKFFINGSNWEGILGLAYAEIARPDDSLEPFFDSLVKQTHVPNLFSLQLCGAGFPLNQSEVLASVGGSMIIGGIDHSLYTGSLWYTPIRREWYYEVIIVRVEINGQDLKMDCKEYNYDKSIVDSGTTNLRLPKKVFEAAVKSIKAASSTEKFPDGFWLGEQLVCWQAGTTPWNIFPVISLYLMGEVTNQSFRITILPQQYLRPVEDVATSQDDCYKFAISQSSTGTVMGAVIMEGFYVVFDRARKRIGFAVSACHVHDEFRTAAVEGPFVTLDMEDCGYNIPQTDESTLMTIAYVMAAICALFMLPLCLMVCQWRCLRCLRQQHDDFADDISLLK
Summary of the method: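 Enzyme (0.2 nM) pre-incubated 1 h with serially diluted inhibitors in 0.05 M acetate pH 4.2, 10% DMSO, 100 uM genapol. Reaction started with 50 nM fluorophore/quencher peptide FRET substrate, run 1 h, stopped with Tris to neutral pH. Fluorescence read at excitation 488 nm, […].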

[2] = system: Aβ 40 in conditioned medium of cells stably expressing Amyloid Precursor Protein (APP); assay: In vitro BACE cell-based assay (Aβ 40 sandwich ELISA); conditions: Homo sapiens, HEK293
Summary of the method: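 APP-expressing cells, 24 h pre-culture in DMEM/10% FBS, treated 24 h with 10-point compound dilutions from 100 or 10 μM top, 0.1% DMSO final. Secreted Aβ40 quantified by sandwich ELISA (pAb40 capture, biotinylated 6E10 detection, europium TRF); IC50 from percent inhibition versus concentration.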

Cathepsin D (Cat D) = Cathepsin D (Cat D) (Homo sapiens, UniProt P07339); assay: In vitro enzymatic Cathepsin D (Cat D) FRET assay; assay type: biochemical
Chain of Cathepsin D (Cat D) (P07339 65-412, species assumed): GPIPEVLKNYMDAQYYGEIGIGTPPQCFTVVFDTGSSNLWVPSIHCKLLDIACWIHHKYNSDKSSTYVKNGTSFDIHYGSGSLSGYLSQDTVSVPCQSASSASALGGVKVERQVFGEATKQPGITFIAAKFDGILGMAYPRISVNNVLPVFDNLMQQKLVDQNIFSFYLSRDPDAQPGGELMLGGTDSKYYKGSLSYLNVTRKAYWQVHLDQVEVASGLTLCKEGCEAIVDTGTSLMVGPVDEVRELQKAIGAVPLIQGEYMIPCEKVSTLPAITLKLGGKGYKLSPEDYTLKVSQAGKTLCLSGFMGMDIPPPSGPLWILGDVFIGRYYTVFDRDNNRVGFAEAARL
Summary of the method: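 Recombinant CHO-expressed enzyme (9 nM) pre-incubated 1 h with serially diluted inhibitor in 0.05 M citrate pH 3.5, 10% DMSO final, 5 mM CHAPS. Reaction started with 20 nM FRET peptide substrate, run 1 h, stopped with Tris to neutral pH; fluorescence read at ex 500/em 580 nm.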

[3] = system: pigment epithelium of the rat's eye; conditions: higher compound dose given for three months; cited from earlier work
[4] = Abeta 40 in CSF of the rat, read-out: % reduction of rat CSF levels at 10 pmk
[5] = Abeta 40 in brain of the rat, read-out: % reduction of rat brain levels at 10 mpk
[6] = average IC50, in vitro enzymatic BACE FRET assay
[7] = average IC50, HEK cell assay, Aβ 40 readout
[8] = Cathepsin D FRET assay, read-out: CatD IC50
[9] = text summary referring to data in Table 2

SMILES | IC50 [1, 6] | IC50 [2, 7] | IC50 (Cathepsin D (Cat D); [8]) | IC50 (Cathepsin D (Cat D); [9]) | IC50 ([1]; average IC50) | IC50 ([2]; HEK cell, average IC50) | IC50 (Cathepsin D (Cat D); read-out: CatD IC50) | inhibition in vivo at 10 mg/kg (Abeta 40; [4]) | inhibition in vivo at 10 mg/kg (Abeta 40; [5]) | toxicology finding in the eye [3]
C[C@H]1C[C@@H]2[C@](C)(N=C(N)C(C)(C)S2(=O)=O)c2cc(NC(=O)c3ccc(C(F)(F)F)cn3)ccc2O1 [Example 84, N-((4aR,6S,11bR)-2-amino-3,3,6,11b-tetramethyl-4,4-dioxido-4a,5,6,11b-tetrahydro-3H-[1]benzoxepino[4,5-b][1,4]thiazin-10-yl)-5-(trifluoromethyl)-2-pyridinecarboxamide] | 0.012 µM | 0.004 µM | 2760 µM | > 1200 µM |  |  |  | 70% | 68% | 
C[C@H]1C[C@@H]2[C@](C)(N=C(N)C(C)(C)S2(=O)=O)c2cc(NC(=O)c3ccc(Cl)cn3)ccc2O1 [Example 85, N-((4aR,6S,11bR)-2-amino-3,3,6,11b-tetramethyl-4,4-dioxido-4a,5,6,11b-tetrahydro-3H-[1]benzoxepino[4,5-b][1,4]thiazin-10-yl)-5-chloro-2-pyridinecarboxamide] | 0.004 µM | 0.003 µM | 607 µM |  |  |  |  | 79% | 78% | 
C[C@@]1(c2cc(-c3cncnc3)c(F)cc2F)CCSC(N)=N1 [LY 2811376] |  |  |  |  |  |  |  |  |  | damaged the pigment epithelium of the rat's eye
C[C@H]1C[C@@H]2[C@](C)(N=C(N)C(C)(C)S2(=O)=O)c2cc(Nc3nccc4cc(C#N)cnc34)ccc2O1 [Example 56, 8-(((4aR,6S,11bR)-2-amino-3,3,6,11b-tetramethyl-4,4-dioxido-4a,5,6,11b-tetrahydro-3H-[1]benzoxepino[4,5-b][1,4]thiazin-10-yl)amino)-1,7-naphthyridine-3-carbonitrile] |  |  |  |  | 0.002 µM | 0.001 µM | 544 µM | 70% | 61% | 
COc1cnc(C(=O)Nc2ccc3c(c2)[C@@]2(C)N=C(N)C(C)(C)S(=O)(=O)[C@@H]2C[C@H](C)O3)cn1 [Example 55, N-((4aR,6S,11bR)-2-amino-3,3,6,11b-tetramethyl-4,4-dioxido-4a,5,6,11b-tetrahydro-3H-[1]benzoxepino[4,5-b][1,4]thiazin-10-yl)-5-methoxy-2-pyrazinecarboxamide] |  |  |  |  | 0.009 µM | 0.004 µM | 650 µM | 74% | 70% | 
Cc1cc(C(F)(F)F)cnc1C(=O)Nc1ccc2c(c1)[C@@]1(C)N=C(N)C(C)(C)S(=O)(=O)[C@@H]1C[C@H](C)O2 [Example 54, N-((4aR,6S,11bR)-2-amino-3,3,6,11b-tetramethyl-4,4-dioxido-4a,5,6,11b-tetrahydro-3H-[1]benzoxepino[4,5-b][1,4]thiazin-10-yl)-3-methyl-5-(trifluoromethyl)-2-pyridinecarboxamide] |  |  |  | > 1200 µM | 0.006 µM | 0.001 µM | 1620 µM | 76% | 63% | 

Continued, in another order:

IC50 [1, 6] | IC50 [2, 7] | IC50 (Cathepsin D (Cat D); [8]) | IC50 (Cathepsin D (Cat D); [9]) | IC50 ([1]; average IC50) | IC50 ([2]; HEK cell, average IC50) | IC50 (Cathepsin D (Cat D); read-out: CatD IC50) | SMILES | inhibition in vivo at 10 mg/kg (Abeta 40; [4]) | inhibition in vivo at 10 mg/kg (Abeta 40; [5]) | toxicology finding in the eye [3]
0.014 µM | 0.037 µM | > 400 µM |  |  |  |  | Cc1cc(C(F)(F)F)cnc1C(=O)Nc1ccc2c(c1)[C@@]1(CF)N=C(N)C(C)(C)S(=O)(=O)[C@@H]1C[C@H](C)O2 [Example 104, N-((4aR,6S,11bS)-2-amino-11b-(fluoromethyl)-3,3,6-trimethyl-4,4-dioxido-4a,5,6,11b-tetrahydro-3H-[1]benzoxepino[4,5-b][1,4]thiazin-10-yl)-3-methyl-5-(trifluoromethyl)-2-pyridinecarboxamide] | 36% | 11% | 
0.004 µM | 0.001 µM | 173 µM |  |  |  |  | C[C@H]1C[C@@H]2[C@](C)(N=C(N)C(C)(C)S2(=O)=O)c2cc(Nc3nccc4nc(OCc5ncco5)cnc34)ccc2O1 [Example 138, (4aR,6S,11bR)-3,3,6,11b-tetramethyl-N^~10^~-(2-(1,3-oxazol-2-ylmethoxy)pyrido[3,4-b]pyrazin-5-yl)-4a,5,6,11b-tetrahydro-3H-[1]benzoxepino[4,5-b][1,4]thiazine-2,10-diamine 4,4-dioxide] | 46% | 38% | 
0.003 µM | 0.002 µM | 567 µM |  |  |  |  | C[C@H]1C[C@@H]2[C@](C)(N=C(N)C(C)(C)S2(=O)=O)c2cc(NC(=O)c3ncc(Cl)cc3Cl)ccc2O1 [Example 129, N-((4aR,6S,11bR)-2-amino-3,3,6,11b-tetramethyl-4,4-dioxido-4a,5,6,11b-tetrahydro-3H-[1]benzoxepino[4,5-b][1,4]thiazin-10-yl)-3,5-dichloro-2-pyridinecarboxamide] | 21% | 18% | 
0.01 µM | 0.005 µM | 427 µM |  |  |  |  | C[C@H]1C[C@@H]2[C@](C)(N=C(N)C(C)(C)S2(=O)=O)c2cc(Nc3ncnc4cc(C(F)(F)F)cnc34)ccc2O1 [Example 133, (4aR,6S,11bR)-3,3,6,11b-tetramethyl-N^~10^~-(7-(trifluoromethyl)pyrido[3,2-d]pyrimidin-4-yl)-4a,5,6,11b-tetrahydro-3H-[1]benzoxepino[4,5-b][1,4]thiazine-2,10-diamine 4,4-dioxide] | 63% | 51% | 
0.017 µM | 0.009 µM | 505 µM |  |  |  |  | CC1(C)C[C@@H]2[C@](C)(N=C(N)C(C)(C)S2(=O)=O)c2cc(Nc3ncnc4cc(C(F)(F)F)cnc34)ccc2O1 [Example 106, (4aR,11bR)-3,3,6,6,11b-pentamethyl-N^~10^~-(7-(trifluoromethyl)pyrido[3,2-d]pyrimidin-4-yl)-4a,5,6,11b-tetrahydro-3H-[1]benzoxepino[4,5-b][1,4]thiazine-2,10-diamine 4,4-dioxide] | 36% | 36% | 

— patent US9309263B2, “Fused multi-cyclic sulfone compounds as inhibitors of beta-secretase and methods of use thereof” (AMGEN INC., priority 2013, dated 2016)
